Experimental data published in patent publication US20160108381A1, “DNA POLYMERASES AND MUTANTS THEREOF” (LIFE TECHNOLOGIES CORPORATION, priority 2001, published 2016).

Tests used:
[1] = target: T1, Caldicellulosiruptor sp. strain Rt69B.1 (RT69B) DNA polymerase, SEQ ID NO:19 (Caldicellulosiruptor saccharolyticus, UniProt Q6X9R7); assay: Steady-state kinetics, DNA- and RNA-dependent polymerase activity; format: biochemical; conditions: Table 40; dTTP; 72 °C
T1 sequence (Q6X9R7 with tags, fused parts or gaps): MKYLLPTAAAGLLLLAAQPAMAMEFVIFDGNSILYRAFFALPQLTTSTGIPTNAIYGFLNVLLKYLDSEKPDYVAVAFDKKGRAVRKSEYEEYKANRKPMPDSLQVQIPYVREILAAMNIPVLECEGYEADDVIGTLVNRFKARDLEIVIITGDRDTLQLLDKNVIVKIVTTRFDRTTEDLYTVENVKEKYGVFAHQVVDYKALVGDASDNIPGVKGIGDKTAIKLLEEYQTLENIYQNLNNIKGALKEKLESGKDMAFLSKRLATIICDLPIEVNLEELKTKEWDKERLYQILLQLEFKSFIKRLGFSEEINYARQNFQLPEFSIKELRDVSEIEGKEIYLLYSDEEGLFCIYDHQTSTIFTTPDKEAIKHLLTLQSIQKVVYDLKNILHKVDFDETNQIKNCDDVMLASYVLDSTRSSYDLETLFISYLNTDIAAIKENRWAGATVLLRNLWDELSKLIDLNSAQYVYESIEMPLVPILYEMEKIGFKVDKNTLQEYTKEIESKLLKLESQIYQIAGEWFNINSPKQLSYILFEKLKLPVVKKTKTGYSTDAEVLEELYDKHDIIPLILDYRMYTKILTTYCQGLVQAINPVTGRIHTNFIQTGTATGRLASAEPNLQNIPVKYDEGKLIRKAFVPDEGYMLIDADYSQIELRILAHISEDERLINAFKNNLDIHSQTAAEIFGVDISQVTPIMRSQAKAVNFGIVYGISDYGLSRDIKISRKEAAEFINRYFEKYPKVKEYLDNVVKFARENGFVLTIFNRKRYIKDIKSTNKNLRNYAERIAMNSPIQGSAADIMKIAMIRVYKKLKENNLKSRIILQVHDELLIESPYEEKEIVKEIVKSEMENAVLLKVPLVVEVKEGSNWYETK
Description: (§1) Subcloning of genes for Tok13B, Tok7B, and Rt69B. Subcloning of the genes for Tok13B, Tok7B, and Rt69B DNA polymerase was carried out to remove the pelB leader sequence derived from pET26B. This reduced proteolytic degradation of the DNA polymerases from these genes observed in E. coli when the pelB leader was present. Each DNA polymerase gene was removed from pET26B by restriction digestion of the plasmid DNA with NcoI, which cut at the 5′ end of the gene, and BamHI, which cut downstream of the translation stop codon at the 3′ end of the gene. The NcoI-BamHI fragment was ligated into the NcoI and BamHI sites of expression vector pET14B (Novagen Inc., Madison, Wis.). The recombinant plasmids were transformed into the E. coli expression host BL21-AI (Invitrogen Corporation, Carlsbad, Calif.).
(§2) Purification of CA2, B.EA1, Rt41A, Dth, Tok13B, Tok7B, and Rt69B DNA polymerase. E. coli cells (BL21SI, Invitrogen Corporation, Carlsbad, Calif.) bearing the plasmid pET26B with the gene for CA2, B.EA1, Rt41A, or Dth DNA polymerase were grown in 2.8-1 Fembach flasks in LB broth containing no salt and 50 μg/ml kanamycin at 37° C. After the culture reached an A590 of 1.2, expression of DNA polymerase was induced with 0.3 M NaCl for 3 hr. Cells were harvested by centrifugation and stored at −70° C. […]

[2] = target: T2, Caldicellulosiruptor sp. strain Tok13B.1 (Tok13B) DNA polymerase, SEQ ID NO:17 (Caldicellulosiruptor saccharolyticus, UniProt Q6X9R9); assay: as above; format: biochemical; conditions: Table 40; dTTP; 72 °C
T2 sequence (Q6X9R9 with tags, fused parts or gaps): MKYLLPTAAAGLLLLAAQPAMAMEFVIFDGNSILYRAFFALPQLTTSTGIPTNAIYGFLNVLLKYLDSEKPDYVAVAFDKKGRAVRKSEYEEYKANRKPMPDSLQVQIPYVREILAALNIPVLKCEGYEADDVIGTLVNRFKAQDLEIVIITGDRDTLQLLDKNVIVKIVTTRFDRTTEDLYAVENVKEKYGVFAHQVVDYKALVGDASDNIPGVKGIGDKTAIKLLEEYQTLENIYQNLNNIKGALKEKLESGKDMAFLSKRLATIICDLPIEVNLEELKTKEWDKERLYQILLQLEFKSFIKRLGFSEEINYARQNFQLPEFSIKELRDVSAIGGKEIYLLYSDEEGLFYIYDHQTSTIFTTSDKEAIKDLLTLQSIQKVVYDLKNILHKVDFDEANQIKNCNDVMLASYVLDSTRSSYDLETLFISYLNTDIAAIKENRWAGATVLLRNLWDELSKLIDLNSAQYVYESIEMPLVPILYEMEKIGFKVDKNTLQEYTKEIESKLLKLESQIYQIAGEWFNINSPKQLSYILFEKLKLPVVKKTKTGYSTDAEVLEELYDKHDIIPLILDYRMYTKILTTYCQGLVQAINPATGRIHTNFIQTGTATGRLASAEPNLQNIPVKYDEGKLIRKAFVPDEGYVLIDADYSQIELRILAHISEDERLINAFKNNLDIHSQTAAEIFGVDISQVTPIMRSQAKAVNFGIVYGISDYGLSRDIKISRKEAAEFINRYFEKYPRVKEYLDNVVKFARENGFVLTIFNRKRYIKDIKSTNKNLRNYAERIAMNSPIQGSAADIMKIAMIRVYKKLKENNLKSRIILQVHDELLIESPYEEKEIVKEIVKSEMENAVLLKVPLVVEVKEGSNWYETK
Description: as §1, §2

SMILES: Cc1cn([C@H]2C[C@H](O)[C@@H](COP(=O)(O)OP(=O)(O)OP(=O)(O)O)O2)c(=O)[nH]c1=O [dTTP]
- kCAT Ratio (RNA/DNA) [1]: 0.03
- kCAT Ratio (RNA/DNA) [2]: 0.03
